Reference: patent publication US12559529B2, “NPY2 receptor agonists” (Boehringer Ingelheim International GmbH, priority 2019, dated 2026)

Key:
[1] = molecular target: T1, human NPY1 receptor (Homo sapiens, UniProt P25929); assay: HTRF cAMP Gi assay, hY1R; format: cell-based; conditions: Table 4; CHO-K1 cells
T1 construct: expressed in transfected cells; host or cells: CHO-K1
T1 sequence (P25929 1-384): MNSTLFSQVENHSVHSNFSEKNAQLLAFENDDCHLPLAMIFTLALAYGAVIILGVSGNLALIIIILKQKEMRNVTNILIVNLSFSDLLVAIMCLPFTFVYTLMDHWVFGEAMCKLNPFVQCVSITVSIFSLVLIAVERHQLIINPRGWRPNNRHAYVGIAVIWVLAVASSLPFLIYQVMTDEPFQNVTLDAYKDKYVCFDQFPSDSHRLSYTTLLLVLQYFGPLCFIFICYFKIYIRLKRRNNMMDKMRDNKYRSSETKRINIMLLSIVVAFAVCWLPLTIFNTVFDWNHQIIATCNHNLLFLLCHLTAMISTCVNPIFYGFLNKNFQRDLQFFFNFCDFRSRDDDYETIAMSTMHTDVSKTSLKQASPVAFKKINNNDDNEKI

[2] = molecular target: T2, Human Neuropeptide Y2 Receptor (Homo sapiens, UniProt P49146); assay: Activity (RLB) after incubation in solutions at different pH values; format: binding; conditions: apparent Ki of filtrate after 2 h in buffer
T2 construct: purchased CHEMICON HTS066M
T2 sequence (P49146 1-381): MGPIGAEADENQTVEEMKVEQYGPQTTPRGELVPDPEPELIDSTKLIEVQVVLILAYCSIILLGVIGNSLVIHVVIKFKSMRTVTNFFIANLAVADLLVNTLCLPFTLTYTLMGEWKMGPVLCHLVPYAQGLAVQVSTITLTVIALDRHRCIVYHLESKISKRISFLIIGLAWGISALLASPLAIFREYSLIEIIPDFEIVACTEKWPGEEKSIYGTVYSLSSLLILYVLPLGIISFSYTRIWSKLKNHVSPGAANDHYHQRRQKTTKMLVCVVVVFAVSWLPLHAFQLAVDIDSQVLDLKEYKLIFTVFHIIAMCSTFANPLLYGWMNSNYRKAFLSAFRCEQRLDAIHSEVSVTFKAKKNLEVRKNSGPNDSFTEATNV

[3] = molecular target: T3, human NPY4 receptor (Homo sapiens, UniProt P50391); assay: HTRF cAMP Gi assay, hY4R; format: cell-based; conditions: Table 4; CHO-K1 cells
T3 construct: expressed in transfected cells; host or cells: CHO-K1
T3 sequence (P50391 whole entry): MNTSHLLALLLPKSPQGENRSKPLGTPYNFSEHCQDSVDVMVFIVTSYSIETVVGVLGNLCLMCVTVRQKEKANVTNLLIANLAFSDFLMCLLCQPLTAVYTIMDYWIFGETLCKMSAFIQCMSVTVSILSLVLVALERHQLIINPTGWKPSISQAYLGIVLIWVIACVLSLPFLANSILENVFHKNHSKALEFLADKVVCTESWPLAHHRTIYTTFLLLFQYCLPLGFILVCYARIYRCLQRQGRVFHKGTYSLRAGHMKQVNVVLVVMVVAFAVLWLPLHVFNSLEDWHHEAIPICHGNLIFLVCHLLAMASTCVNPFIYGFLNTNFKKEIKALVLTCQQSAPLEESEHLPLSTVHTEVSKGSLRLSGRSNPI

[4] = molecular target: T4, human NPY2 receptor (Homo sapiens, UniProt P49146); assay: HTRF cAMP Gi assay, hY2R
T4 sequence (P49146 1-381): T2 sequence (P49146 1-381)
Protocol: Briefly, the production of intracellular cAMP will generate a competition between unlabeled cAMP and exogenously added d2-cAMP for anti-cAMP antibodies conjugated to cryptate. CHO-K1 cells stably expressing the human NPY1, NPY2, NPY4 and NPY5 receptors were used with the cells brought to life from a frozen stock immediately before assay performance. 2000 cells per well were applied for all four NPY receptor subtype assays. A 384-well format was used applying a total volume of 20 μl using 5 μl cells, 2.5 μl peptide agonist, 2.5 μl forskolin and 5 μl of each of the fluorophores. […] Concentration-response evaluation of compounds was performed with 11 concentrations of agonist peptides (covering 3 decades). EC50 values were calculated by nonlinear regression using sigmoid concentration-response with variable slope.

[5] = molecular target: T5, human NPY5 receptor (Homo sapiens, UniProt Q15761); assay: HTRF cAMP Gi assay, hY5R
T5 sequence (Q15761 1-445): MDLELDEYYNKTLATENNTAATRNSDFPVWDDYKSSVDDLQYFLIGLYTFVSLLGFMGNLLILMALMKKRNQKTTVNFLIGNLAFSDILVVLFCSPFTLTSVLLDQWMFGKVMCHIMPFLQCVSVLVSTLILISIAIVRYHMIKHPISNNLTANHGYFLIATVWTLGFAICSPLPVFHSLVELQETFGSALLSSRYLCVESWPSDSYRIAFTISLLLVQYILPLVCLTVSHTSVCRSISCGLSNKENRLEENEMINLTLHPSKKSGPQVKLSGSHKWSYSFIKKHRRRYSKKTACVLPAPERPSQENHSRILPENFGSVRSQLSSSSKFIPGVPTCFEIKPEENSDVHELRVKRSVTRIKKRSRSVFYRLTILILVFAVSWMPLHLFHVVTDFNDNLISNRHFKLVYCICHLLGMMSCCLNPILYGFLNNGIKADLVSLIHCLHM
Excerpt: The Homogenous Time Resolved fluorescence (HTRF) technology optimized for Gi coupled receptors has thoroughly been described in Cisbio cAMP Gi kit manual. Briefly, the production of intracellular cAMP will generate a competition between unlabeled cAMP and exogenously added d2-cAMP for anti-cAMP antibodies conjugated to cryptate. CHO-K1 cells stably expressing the human NPY1, NPY2, NPY4 and NPY5 receptors were used with the cells brought to life from a frozen stock immediately before assay performance. 2000 cells per well were applied for all four NPY receptor subtype assays. A 384-well format was used applying a total volume of 20 μl using 5 μl cells, 2.5 μl peptide agonist, 2.5 μl forskolin and 5 μl of each of the fluorophores. […] Concentration-response evaluation of compounds was performed with 11 concentrations of agonist peptides (covering 3 decades). EC50 values were calculated by nonlinear regression using sigmoid concentration-response with variable slope.

[6] = molecular target: T2, Human Neuropeptide Y2 Receptor; assay: Radioligand binding competition assay (RLB)
Outline: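 IC50 values come from nonlinear regression of sigmoidal dose-response curves of filter-bound radioactivity. Peptides competed with radioligand at human Y2 receptor membranes (0.5 μg protein/well) for 2 h at room temperature in pH 7.4 HEPES buffer containing Mg2+, Ca2+ and 0.2% ovalbumin.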

[7] = Solubility determination; format: physicochemical
Protocol: The peptide was dissolved by shaking the filter unit horizontally at 600 rpm for 2 hours at room temperature. […] Both the control and sample were analysed with reversed phase chromatography. The area under the peak of the sample was compared to the control and the solubility was calculated based on that ratio. The pH was measured and recorded for each sample.

Row | EC50 [1] [nM] | Ki ([2]; pH6.1-6.2, assumed 10 mg/ml, read-out: RLB 6 (pH6.1-6.2)) [nM] | Ki ([2]; pH7.1-7.2, assumed 10 mg/ml, read-out: RLB 7 (pH7.1-7.2)) [nM] | Ki ([2]; pH8.1-8.2, assumed 10 mg/ml, read-out: RLB 8 (pH8.1-8.2)) [nM] | EC50 [3] [nM] | EC50 [4] [nM] | EC50 [5] [nM] | Ki ([6]; Table 3, human 125I-PYY (1-36) 0.02 nM, Y2 receptor membranes, read-out: Ki) [nM] | Ki ([6]; Table 8, from DMSO stock, read-out: hY2R RLB Ki (nM) DMSO) [nM] | Ki ([6]; Table 2, read-out: hY2 RLB (nM) (Ex. 1)) | [final pH] of Sol pH 6 sample ([7]; pH 6) | [final pH] of Sol pH 7 sample ([7]; pH 7) | Structure (SMILES)
1 | > 5000 | 7.7 | 9.3 | 7.5 | > 5000 | 0.173 | > 5000 | 0.66 | 6 | – | – | – | CC(C)CC(=O)N[C@@H](C)C(=O)N1CCC[C@H]1C(=O)N[C@@H](C)C(=O)N[C@@H](CCCCNC(=O)COCCOCCNC(=O)COCCOCCNC(=O)CC[C@H](NC(=O)CCCCCCCCCCCCCCCCC(=O)O)C(=O)O)C(=O)N1CCC[C@H]1C(=O)N[C@@H](CCC(=O)O)C(=O)N[C@@H](CCC(=O)O)C(=O)N[C@@H](CC(=O)O)C(=O)N[C@@H](C)C(=O)N[C@H](C(=O)N1CCC[C@H]1C(=O)N[C@@H](CCC(=O)O)C(=O)N[C@@H](CCC(=O)O)C(=O)N[C@@H](CC(C)C)C(=O)N[C@@H](CCC(N)=O)C(=O)N[C@@H](CCCNC(=N)N)C(=O)N[C@@H](Cc1ccc(O)cc1)C(=O)N[C@@H](Cc1ccc(O)cc1)C(=O)N[C@H](C(=O)N[C@@H](CO)C(=O)N[C@@H](CC(C)C)C(=O)N[C@@H](CCCNC(=N)N)C(=O)N[C@@H](Cc1c[nH]cn1)C(=O)N[C@@H](Cc1ccc(O)cc1)C(=O)N[C@@H](Cc1ccc(O)cc1)C(=O)N[C@@H](CC(N)=O)C(=O)N[C@@H](Cc1c[nH]c2ccccc12)C(=O)N[C@@H](CC(C)C)C(=O)N[C@H](C(=O)N[C@@H](CCCNC(=N)N)C(=O)N[C@@H](CCC(N)=O)C(=O)N[C@@H](CCCNC(=N)N)C(=O)N[C@@H](Cc1ccc(O)cc1)C(N)=O)[C@@H](C)O)C(C)C)[C@@H](C)O [Compound 106, N{alpha-4}-(3-methylbutanoyl)-N{epsilon-7}-[2-(2-{2-[2-(2-{2-[(4S)-4-carboxy-4-(17-carboxyheptadecanamido)butanamido]ethoxy}ethoxy)acetamido]ethoxy}ethoxy)acetamido]-[4A,6A,7K,9E,13T,18Q,22V,28Y,30W,31L]hPYY (4-36)]
2 | – | – | – | – | – | 0.375 | – | – | – | 1.69 | [6.0] | [6.7] | CC(C)CC(=O)N[C@@H](CCCNC(=N)N)C(=O)N1CCC[C@H]1C(=O)N[C@@H](CCC(=O)O)C(=O)N[C@@H](CCCCNC(=O)COCCOCCNC(=O)COCCOCCNC(=O)CC[C@H](NC(=O)CCCCCCCCCCCCCCCCC(=O)O)C(=O)O)C(=O)N1CCC[C@H]1C(=O)NCC(=O)N[C@@H](CCC(=O)O)C(=O)N[C@@H](CC(=O)O)C(=O)N[C@@H](C)C(=O)N[C@@H](CO)C(=O)N1CCC[C@H]1C(=O)N[C@@H](CCC(=O)O)C(=O)N[C@@H](CCC(=O)O)C(=O)N[C@@H](CC(C)C)C(=O)N[C@@H](CCC(N)=O)C(=O)N[C@@H](CCCNC(=N)N)C(=O)N[C@@H](Cc1ccc(O)cc1)C(=O)N[C@@H](Cc1ccc(O)cc1)C(=O)N[C@H](C(=O)N[C@@H](CO)C(=O)N[C@@H](CC(C)C)C(=O)N[C@@H](CCCNC(=N)N)C(=O)N[C@@H](C)C(=O)N[C@@H](Cc1ccc(O)cc1)C(=O)N[C@@H](Cc1ccc(O)cc1)C(=O)N[C@@H](CC(N)=O)C(=O)N[C@@H](Cc1c[nH]c2ccccc12)C(=O)N[C@@H](CC(C)C)C(=O)N[C@H](C(=O)N[C@@H](CCCNC(=N)N)C(=O)N[C@@H](CCC(N)=O)C(=O)N[C@@H](CCCNC(=N)N)C(=O)N[C@@H](Cc1ccc(O)cc1)C(N)=O)[C@@H](C)O)C(C)C [Ref. 3, reference compound]
